Key:
Assay in all cases: SPR (equilibrium)
[1] = system: Acic-145 large stem loop (T7_acic145_polyA) (RNA, aptamer) GGGACCGGAAUAACCGAAGUAGUUUAUGGGCUACCGAAAUCCGGUCCCCAAAAAAAAAAAAAAAAAAAAAAAA; conditions: Na+ (1.5 M NaCl [sic]), Mg2+ 0.5 mM; HBS-N (0.1 M HEPES [sic]), pH 7.4
[2] = system: Acic-145 (full length, G12A, SPR form) (RNA, ribozyme) GGGAAACAAACAAAGCUGUCACCGGAAUAACCGAAGUAGUUUAUGGGCUACCGAAAUCCGGUCUGAUGAGUCCUCGGGGUGGACAAAACAGCAAAAAAAAAAAAAAAAAA; conditions: Na+ (1.5 M NaCl [sic]), Mg2+ 0.5 mM; HBS-N (0.1 M HEPES [sic]), pH 7.4
[3] = system: SRet-760 large stem loop (T7_SRet760_polyA) (RNA, aptamer) GGGGUCCUAUAGGCACGCUUCCCCCAGGUGUAGGGAGGACCCCCAAAAAAAAAAAAAAAAAAAAAAAA; conditions: Na+ (1.5 M NaCl [sic]), Mg2+ 0.5 mM; HBS-N (0.1 M HEPES [sic]), pH 7.4
[4] = system: SRet-760 (full length, G12A, SPR form) (RNA, ribozyme) GGGAAACAAACAAAGCUGUCACUGGACCCUAACAUUCCAGUCUGAUGAGUCCUAUAGGCACGCUUCCCCCAGGUGUAGGGAGGACAAAACAGCAAAAAAAAAAAAAAAAAAAAAAAA; conditions: Na+ (1.5 M NaCl [sic]), Mg2+ 0.5 mM; HBS-N (0.1 M HEPES [sic]), pH 7.4
[5] = system: SRet-584 (full length, G12A, SPR form) (RNA, ribozyme) GGGAAACAAACAAAGCUGUCACUGGACGCAAAAAUUCCAGUCUGAUGAGUCCAUAAUGAGCAACAACACGAUUCCUCAUGCGGGACAAAACAGCAAAAAAAAAAAAAAAAAAAAAAAA; conditions: Na+ (1.5 M NaCl [sic]), Mg2+ 0.5 mM; HBS-N (0.1 M HEPES [sic]), pH 7.4
[6] = system: TZea-927 large stem loop (T7_zea927_polyA) (RNA, aptamer) GGGGUCCCUCCAUGCGACCCAGUGUGAUACGUGGACAGGACCCCCAAAAAAAAAAAAAAAAAAAAAAAA; conditions: Na+ (1.5 M NaCl [sic]), Mg2+ 0.5 mM; HBS-N (0.1 M HEPES [sic]), pH 7.4
[7] = system: TZea-927 (full length, G12A, SPR form) (RNA, ribozyme) GGGAAACAAACAAAGCUGUCACCGGAAACUGGAUCUGGUCUGAUGAGUCCCUCCAUGCGACCCAGUGUGAUACGUGGACAGGACAAAACAGCAAAAAAAAAAAAAAAAAAAAAAAA; conditions: Na+ (1.5 M NaCl [sic]), Mg2+ 0.5 mM; HBS-N (0.1 M HEPES [sic]), pH 7.4
[8] = system: TZea-579 large stem loop (RNA, aptamer) GGGACCGGGUAGAACAGAAUGCAAGUGCGUAGAAGCGCCUCCGGUCCCCAAAAAAAAAAAAAAAAAAAAAAAA; conditions: Na+ (1.5 M NaCl [sic]), Mg2+ 0.5 mM; HBS-N (0.1 M HEPES [sic]), pH 7.4
[9] = system: TZea-579 (full length, G12A, SPR form) (RNA, ribozyme) GGGAAACAAACAAAGCUGUCACCGGGUAGAACAGAAUGCAAGUGCGUAGAAGCGCCUCCGGUCUGACGAGUCCUUAGCACGGACAAAACAGCAAAAAAAAAAAAAAAAAAAAAAAA; conditions: Na+ (1.5 M NaCl [sic]), Mg2+ 0.5 mM; HBS-N (0.1 M HEPES [sic]), pH 7.4
[10] = system: Gard-547 (full length, G12A, SPR form) (RNA, ribozyme) GGGAAACAAACAAAGCUGUCACCGGAAUAGUCGAUGGGUGCUACAUAGCGCCGGAAUCCAGUCUGAUGAGUCUCUCGGCAGGACAAAACAGCAAAAAAAAAAAAAAAAAAAAAAAA; conditions: Na+ (1.5 M NaCl [sic]), Mg2+ 0.5 mM; HBS-N (0.1 M HEPES [sic]), pH 7.4; no replicates
[11] = system: Theo-421 (full length, G12A, SPR form) (RNA, ribozyme) GGGAAACAAACAAAGCUGUCACCGGAAUGUGAGUCCGGUCUGAUGAGUCCCUCAUGUGCCUUCCAGCGGUACGAUACUCAGGACAAAACAGCAAAAAAAAAAAAAAAAAAAAAAAA; conditions: Na+ (1.5 M NaCl [sic]), Mg2+ 0.5 mM; HBS-N (0.1 M HEPES [sic]), pH 7.4
[12] = system: Theo-421 truncation, 1st suboptimal structure (T7_theo421_polyA_subopt1) (RNA, aptamer) GGGUGAGUCCCUCAUGUGCCUUCCAGCGGUACGAUACUCACCCCAAAAAAAAAAAAAAAAAAAAAAAA; conditions: Na+ (1.5 M NaCl [sic]), Mg2+ 0.5 mM; HBS-N (0.1 M HEPES [sic]), pH 7.4
[13] = system: Theo-421 truncation, minimum free energy structure (T7_theo421_polyA_MFE) (RNA, aptamer) GGGGUCCCUCAUGUGCCUUCCAGCGGUACGAUACUCAGGACCCCCAAAAAAAAAAAAAAAAAAAAAAAA; conditions: Na+ (1.5 M NaCl [sic]), Mg2+ 0.5 mM; HBS-N (0.1 M HEPES [sic]), pH 7.4
[14] = system: Nosc-441 (full length, G12A, SPR form) (RNA, ribozyme) GGGAAACAAACAAAGCUGUCACCGGAAGAACUGACAUUUGCAACGUCAUGUGCGAUGUCCAACGUGUAGCCACCUAGGCGUACAGAUCCGGUCUGAUGAGUCCUCGAUGGACAAAACAGCAAAAAAAAAAAAAAAAAAAAAAAA; conditions: Na+ (1.5 M NaCl [sic]), Mg2+ 0.5 mM; HBS-N (0.1 M HEPES [sic]), pH 7.4
[15] = system: Nosc-441 large stem loop (RNA, aptamer) GGGACCGGAAGAACUGACAUUUGCAACGUCAUGUGCGAUGUCCAACGUGUAGCCACCUAGGCGUACAGAUCCGGUCCCCAAAAAAAAAAAAAAAAAAAAAAAA; conditions: Na+ (1.5 M NaCl [sic]), Mg2+ 0.5 mM; HBS-N (0.1 M HEPES [sic]), pH 7.4
[16] = system: Nosc-786 (full length, G12A, SPR form) (RNA, ribozyme) GGGAAACAAACAAAGCUGUCACCGGAAGAACUUACAUUUGCAACGUCAUGUGCGAUGUCCAACGUGUAGCCACCUAGGCGUACAGAUCCGGUCCGAUGAGUCCUCGAUGGACAAAACAGCAAAAAAAAAAAAAAAAAAAAAAAA; conditions: Na+ (1.5 M NaCl [sic]), Mg2+ 0.5 mM; HBS-N (0.1 M HEPES [sic]), pH 7.4

`Nc1nc2c(ncn2COCCO)c(=O)[nH]1` showed a KD [1] of 0.700 ± 0.004 µM and a KD [2] of 1.5 ± 0.3 µM.

`COc1ccc(C[C@H]2c3cc(O)c(OC)cc3CCN2C)cc1O` was tested, and the binding [3] was “no”, the KD [4] was 0.15 ± 0.01 µM and the “Equilibrium KD” value [5] was 0.465 µM.

`C/C(=C\CNc1ncnc2[nH]cnc12)CO` was tested, and the binding [6] was “no”, the KD [7] was 62 ± 20 µM and the KD [8] was 37 ± 3 µM. The KD [9] was 3.1 ± 0.5 µM.

`CCNCc1nc2c(N)nc3ccccc3c2n1CC(C)(C)O` was tested, and the KD [10] was 0.0101 µM.

In the case of `Cn1c(=O)c2[nH]cnc2n(C)c1=O`, the KD [11] is reported as 68 ± 20 µM, the KD [12] is reported as 17.0 ± 0.7 µM and the binding [13] is reported as “no”.

For `COc1ccc2c(c1OC)C(=O)O[C@@H]2[C@H]1c2c(cc3c(c2OC)OCO3)CCN1C`, the KD [14] was 13 ± 2 µM, the KD [15] was 20 ± 7 µM and the “Equilibrium KD” value [16] was 28.7 µM.
